Test results taken from ChEMBL document CHEMBL2074347, “Circumvention of tumor multidrug resistance by a new annonaceous acetogenin: atemoyacin-B” (Acta Pharmacol Sin, 1999).

Columns and labels:
[1] = biological target: T1, ATP-dependent translocase ABCB1 (Homo sapiens, UniProt P08183); experiment: TP_TRANSPORTER: increase in Fura-2 intracellular accumulation (Fura-2: ? uM, Ateomyacin-B: 168 uM) in MCF-7/Dox cells; type: functional, cell-based
[2] = biological target: T1, ATP-dependent translocase ABCB1; experiment: TP_TRANSPORTER: increase in Doxorubicin intracellular accumulation (Doxorubicin: ? uM, Ateomyacin-B: 168 uM) in MCF-7/Dox cells; type: functional, cell-based

T1 sequence (P08183 whole entry): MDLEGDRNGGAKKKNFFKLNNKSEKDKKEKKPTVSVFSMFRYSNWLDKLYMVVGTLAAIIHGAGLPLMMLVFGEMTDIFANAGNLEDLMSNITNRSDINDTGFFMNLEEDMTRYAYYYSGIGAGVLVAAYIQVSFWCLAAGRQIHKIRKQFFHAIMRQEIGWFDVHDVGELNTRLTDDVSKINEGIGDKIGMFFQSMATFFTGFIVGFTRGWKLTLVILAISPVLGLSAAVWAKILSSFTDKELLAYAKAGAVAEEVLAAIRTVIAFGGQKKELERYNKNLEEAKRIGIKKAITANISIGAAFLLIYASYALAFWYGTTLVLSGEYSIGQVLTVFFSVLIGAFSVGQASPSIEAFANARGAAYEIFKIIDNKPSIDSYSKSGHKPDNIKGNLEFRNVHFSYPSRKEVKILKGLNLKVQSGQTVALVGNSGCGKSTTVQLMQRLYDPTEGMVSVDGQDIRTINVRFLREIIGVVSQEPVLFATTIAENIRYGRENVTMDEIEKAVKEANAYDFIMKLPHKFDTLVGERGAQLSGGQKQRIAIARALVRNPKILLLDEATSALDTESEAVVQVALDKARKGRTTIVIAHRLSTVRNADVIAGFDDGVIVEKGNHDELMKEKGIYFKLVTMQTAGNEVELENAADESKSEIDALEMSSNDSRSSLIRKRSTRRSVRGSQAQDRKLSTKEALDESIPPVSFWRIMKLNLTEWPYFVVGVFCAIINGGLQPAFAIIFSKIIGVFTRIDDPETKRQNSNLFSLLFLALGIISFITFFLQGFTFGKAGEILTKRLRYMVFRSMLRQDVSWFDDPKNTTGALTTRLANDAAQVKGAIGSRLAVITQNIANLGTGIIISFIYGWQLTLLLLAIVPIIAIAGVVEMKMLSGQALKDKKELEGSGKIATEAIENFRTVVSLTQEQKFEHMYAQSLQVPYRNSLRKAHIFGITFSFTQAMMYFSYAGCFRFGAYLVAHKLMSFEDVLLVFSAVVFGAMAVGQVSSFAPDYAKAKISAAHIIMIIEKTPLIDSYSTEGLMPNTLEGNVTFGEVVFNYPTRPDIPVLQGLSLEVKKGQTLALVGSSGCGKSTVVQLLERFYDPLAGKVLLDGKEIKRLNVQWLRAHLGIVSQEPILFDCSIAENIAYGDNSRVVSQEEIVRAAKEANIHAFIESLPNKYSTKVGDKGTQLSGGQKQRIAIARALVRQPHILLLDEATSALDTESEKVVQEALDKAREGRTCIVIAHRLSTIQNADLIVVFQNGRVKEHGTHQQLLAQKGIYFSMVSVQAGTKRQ

- Activity [1]: 2.61 fold
- Activity [2]: 3.28 fold
Compound: CCCCCC(O)CCCCC(O)C1CCC(C2CCC(C(O)CCCCCCCCCCC3=CC(C)OC3=O)O2)O1 (configuration not stated) [Atemoyacin-B]
